Data as given in patent US4562183A, “Perfluoro-1-azabicyclo(5,3,0)decane compounds useful as blood substitutes” (I.S.C. Chemicals Limited, priority 1982, dated 1985).
Like-named read-outs stand apart in the source and are kept apart here. Blank lines part the entries; values can stand above or below the compound they belong to.

Tests used:
[1] = Oxygen solubility in fluorocarbon; assay type: physicochemical; conditions: oxygen-saturated at 20° C.; corrected for vapour pressure of fluorocarbon
Method: A portion of 20 ml. of ABCD was degassed by boiling and cooled to 20° C. while being bubbled with oxygen gas. The oxygen-saturated liquid was then degassed under vacuum and the gas evolved was collected and its volume measured at a known temperature and pressure. After allowing for the vapour pressure of the fluorocarbon, the solubility of oxygen was calculated to be in the range 45±10 mls of O2 (at 760 mm Hg & 0° C.) per 100 ml. of fluorocarbon. The solubility of oxygen in ABCD is thus adequate to permit the use of this fluorocarbon as an oxygen carrier for medical use.

[2] = Stability of emulsion with yolk phospholipids; assay type: physicochemical; conditions: heating at 100° C. for 30 minutes and storage at 4° C. and 25° C. for 2 weeks
Method: In order to evaluate the feasibility of emulsification, ABCD was emulsified with yolk phospholipids by using a Manton-Gaulin homogenizer and the stability to heating at 100° C. for 30 minutes and storage at 4° C. and 25° C. for 2 weeks were examined.

[3] = Retention in body organs with time (gas chromatography); assay type: in vivo, rats; conditions: rat, 0.32 mL/100 g, 0.32 ml. fluorocarbon per 100 gm body weight; for concentration at 120 h: 5 Days; for concentration at 168 h: 7 Days (Av. of 2); for concentration at 240 h: 10 Days; for concentration at 504 h: 21 Days
Method: 4. RETENTION OF PERFLUORO-1-AZABICYCLO(5,3,0)DECANE BODY ORGANS WITH TIME
Gas chromatography results--rats injected with emulsion of ABCD (0.32 ml. fluorocarbon per 100 gm body weight). The following residual fluorocarbon concentrations were observed. (In mg. fluorocarbon/gm tissue).

[4] = Solubilities at 25° C. of perfluoro-1-azabicyclo(5,3,0)decane in solvents; assay type: physicochemical
Excerpt: Solubility of perfluoro-1-
azabicyclo(5,3,0)decane in […]

[5] = Toxicity: weight gain of rats administered emulsion; assay type: in vivo; conditions: Wistar strain male rats, ABCD emulsion, 4 g/kg as ABCD
Method: (§1) ABCD was evaluated as candidate for an artificial blood substitute from the aspects of toxicity, feasibility of emulsification and excretion rate from the organs.

[6] = Emulsion forming capacity with Pluronic F68, standing overnight; assay type: physicochemical; conditions: for Emulsification time to form emulsion: Pluronic F68 in deionised water, high speed mixer; for Separation (creaming) of the emulsion: standing at room temperature overnight, Pluronic F68
Method: To 10 ml. of perfluoro-1-azabicyclo(5,3,0)decane (ABCD) was added 10 ml. of solution made by dissolving 8.0 g of a non-ionic, polyoxyethylene-polyoxypropylene surfactant ('Pluronic F68', RTM) in 220 ml. of deionised water. The mixture was emulsified for a few minutes using a high speed mixer to form an emulsion having the appearance of diluted milk.
In a comparison test, an emulsion was formed using perfluorodecalin. An emulsion of similar appearance to that formed with ABCD required about 10 minutes emulsification.

[7] = Excretion rate from the organs; assay type: in vivo, rats
Method: as §1

[8] = Base stability of fluorination product; assay type: physicochemical
[9] = aqueous media; cited from earlier work
[10] = in vivo; cited from earlier work
[11] = heart, read-out: Residual fluorocarbon concentration, heart
[12] = kidney, read-out: Residual fluorocarbon concentration, kidney
[13] = liver, read-out: Residual fluorocarbon concentration, liver
[14] = lung, read-out: Residual fluorocarbon concentration, lung
[15] = spleen, read-out: Residual fluorocarbon concentration, spleen

SMILES: FC1(F)N2C(F)(F)C(F)(F)C(F)(F)C2(F)C(F)(F)C(F)(F)C(F)(F)C1(F)F (stereo not shown) [ABCD, perfluoro-1-azabicyclo(5,3,0)decane]
Solubility of oxygen [1]: 45±10 mls of O2 (at 760 mm Hg & 0° C.) per 100 ml. of fluorocarbon
Stability of emulsion [2]: acceptably stable
concentration at 120 h [3, 11]: 130000 ng/g
concentration at 120 h [3, 12]: 170000 ng/g
concentration at 120 h [3, 13]: 1.18e+07 ng/g
concentration at 120 h [3, 14]: 560000 ng/g
concentration at 120 h [3, 15]: 4.35e+07 ng/g
concentration at 168 h [3, 11]: 450000 ng/g
concentration at 168 h [3, 12]: 100000 ng/g
concentration at 168 h [3, 13]: 6.73e+06 ng/g
concentration at 168 h [3, 14]: 100000 ng/g
concentration at 168 h [3, 15]: 2.23e+07 ng/g
concentration at 240 h [3, 11]: 260000 ng/g
concentration at 240 h [3, 12]: 190000 ng/g
concentration at 240 h [3, 13]: 2.51e+06 ng/g
concentration at 240 h [3, 14]: 160000 ng/g
concentration at 240 h [3, 15]: 1.2e+08 ng/g
concentration at 336 h ([3]; 14 Days (* not Av. of 2), spleen, read-out: Residual fluorocarbon concentration, spleen): 3.69e+06 ng/g
concentration at 336 h ([3]; 14 Days (Av. of 2), heart, read-out: Residual fluorocarbon concentration, heart): 180000 ng/g
concentration at 336 h ([3]; 14 Days (Av. of 2), kidney, read-out: Residual fluorocarbon concentration, kidney): 150000 ng/g
concentration at 336 h ([3]; 14 Days (Av. of 2), liver, read-out: Residual fluorocarbon concentration, liver): 380000 ng/g
concentration at 336 h ([3]; 14 Days (Av. of 2), lung, read-out: Residual fluorocarbon concentration, lung): 150000 ng/g
concentration at 504 h [3, 11]: 160000 ng/g
concentration at 504 h [3, 12]: 160000 ng/g
concentration at 504 h [3, 13]: 40000 ng/g
concentration at 504 h [3, 14]: 150000 ng/g
concentration at 504 h [3, 15]: 1.12e+06 ng/g
Solubility in acetone ([4]; acetone): 6.84 g in 100 g solvent
Solubility in hexane ([4]; hexane): miscible
Solubility in methanol ([4]; methanol): 1.36 g in 100 g solvent
Solubility in trichloro-trifluoroethane ([4]; trichloro-trifluoroethane): miscible
Solubility in water ([4]; water): hardly soluble
Weight gain [5]: gained weight favourably
Emulsification time to form emulsion [6]: a few minutes
Separation (creaming) of the emulsion [6]: minor amount of separation ('creaming')
Amount detected in all organs ([7]; 2 weeks after injection): only trace amounts
Elimination from the organs ([7]; after injection): very rapidly eliminated from the organs

SMILES: FC(F)(F)C1(F)N2C(F)(F)C(F)(F)C(F)(F)C2(F)C(F)(F)C(F)(F)C(F)(F)C1(F)F (stereo not shown) [perfluoro-1-aza-2-methyl(5,3,0)decane]
Stability to base [8]: base-stable

Emulsification time to form emulsion [6]: about 10 minutes
Separation (creaming) of the emulsion [6]: pronounced creaming
SMILES: FC1(F)C(F)(F)C(F)(F)C2(F)C(F)(F)C(F)(F)C(F)(F)C(F)(F)C2(F)C1(F)F (stereo not shown) [perfluorodecalin, reference compound]
Emulsion stability [9]: does not easily give a stable emulsion in aqueous media

SMILES: FC(F)(F)C(F)(F)C(F)(F)N(C(F)(F)C(F)(F)C(F)(F)F)C(F)(F)C(F)(F)C(F)(F)F [perfluorotripropylamine]
Retention time in the body [10]: longer retention time in the body
Emulsion stability [9]: gives a more stable emulsion than perfluorodecalin
